Experimental data published in US10159670B2, “Methods of diagnosing and treating motor neuron diseases and other cellular stress-related diseases” (priority 2012, dated 2018).

Columns and labels:
eIF2a = assay: Western blot of eIF2a S51 phosphorylation in NSC-34 cells; assay type: cell-based; conditions: 0.5 mM; 1 hr
Description: (FIG. 7A) miRNA expression level analysis in the motor neuron cell line NSC-34, treated with 6.25 nM Thapsigargin for 24 hrs, relative to cells treated with carrier alone (DMSO). Shown are average and s.d. of qPCR analyses of 3 independent experiments. Pre-miRNAs (light grey, normalized to Gapdh) and miRNAs (dark grey, normalized to Snord68). (FIG. 7B) mRNA levels encoding for proteins involved in the canonical stress response, normalized to the expression of beta-actin. (FIG. 7C) miRNA expression level analysis in mouse embryonic motor neurons, treated with 5 nM Thapsigargin for 72 hrs, relative to cells treated with carrier alone (DMSO). Shown are average and s.d. of qPCR analyses of three independent experiments. Pre-miRNAs (light grey, normalized to Gapdh and beta actin) and miRNAs (dark grey, normalized to Snord70). (FIG. 7D) mRNA markers of the canonical stress response, normalized to the expression of beta-actin. miRNA expression level analysis in NSC-34 cells, treated with Paraquat (PQ) (1 mM, 12 hrs, FIG. 7E) and sodium arsenite (0.5 mM, 60 min, FIG. 7F). pre-miRNA normalized to beta-actin mRNA (FIGS. 7E-F) and miRNAs to 5S (FIG. 7E) or to U6 and 5S (FIG. 7F). (FIGS. 7G-I) miRNA expression level analysis in mouse embryonic Wild-type fibroblasts (light grey) or phospho-mutant eIF2a S51A cells (black) treated with Thapsigargin (5 nM, 72 hrs) relative to carrier alone. […]

NSC-34 cells = assay: Stress-induced change of pre-miRNA processing in NSC-34 cells (qPCR); assay type: cell-based; conditions: 1 hr, 0.5 mM
Description: (FIG. 7A) miRNA expression level analysis in the motor neuron cell line NSC-34, treated with 6.25 nM Thapsigargin for 24 hrs, relative to cells treated with carrier alone (DMSO). Shown are average and s.d. of qPCR analyses of 3 independent experiments. Pre-miRNAs (light grey, normalized to Gapdh) and miRNAs (dark grey, normalized to Snord68). (FIG. 7B) mRNA levels encoding for proteins involved in the canonical stress response, normalized to the expression of beta-actin. (FIG. 7C) miRNA expression level analysis in mouse embryonic motor neurons, treated with 5 nM Thapsigargin for 72 hrs, relative to cells treated with carrier alone (DMSO). Shown are average and s.d. of qPCR analyses of three independent experiments. Pre-miRNAs (light grey, normalized to Gapdh and beta actin) and miRNAs (dark grey, normalized to Snord70). (FIG. 7D) mRNA markers of the canonical stress response, normalized to the expression of beta-actin. miRNA expression level analysis in NSC-34 cells, treated with Paraquat (PQ) (1 mM, 12 hrs, FIG. 7E) and sodium arsenite (0.5 mM, 60 min, FIG. 7F). pre-miRNA normalized to beta-actin mRNA (FIGS. 7E-F) and miRNAs to 5S (FIG. 7E) or to U6 and 5S (FIG. 7F). (FIGS. 7G-I) miRNA expression level analysis in mouse embryonic Wild-type fibroblasts (light grey) or phospho-mutant eIF2a S51A cells (black) treated with Thapsigargin (5 nM, 72 hrs) relative to carrier alone. Pre-miRNA (FIG. 7G) and mature miRNA (FIG. 7H) levels normalized to Gapdh and Snord68, respectively. (FIG. 7I) ATF4, which is induced by phosphorylation of eIF2a, was not induced in phospho-mutant eIF2a S51A cells. Significance of p-values from ANOVA tests is indicated by *p<0.05; **p<0.01. (FIGS. 7J-K) Western-Blot analysis of lysates from untreated NSC-34 cells (control) or cells treated with sodium arsenite (0.5 mM, 60 min). Phospho-specific immunodetection of eIF2a S51 phosphorylation (peIF2a) and total eIF2a levels (FIG. 7J), Dicer and Ago2 levels (FIG. 7K). (FIG. 7L) miRNA expression level analysis in mouse embryonic fibroblasts treated with Puromycin (1 μg/ml, 24 hrs), relative to cells treated with carrier alone (water). Pre-miRNAs (light grey, normalized to Gapdh) and miRNAs (dark grey, normalized to Snord68).
RNA was extracted using Tri reagent (Molecular Research Center Inc.) or Qiazol with consecutive use of the miRNeasy Mini Kit (Qiagen). Pre-miRNA and miRNA reverse transcription was performed using miScript Kits No. I & II (Qiagen). Quantitative analysis of miRNA and pre-miRNA expression performed in more than 3 independent biological repeats and additionally in technical duplicates with StepOnePlus quantitative Real-Time PCR System and 2-sided ANOVA-test performed with DataAssist Software (Life technologies Inc.). Next-generation sequencing of mouse precursor miRNAs and mature miRNAs was performed on two independent experimental repeats, as described in Newman et al. [Newman et al. (2011) RNA 17(10): 1795-1803]. miRNAs were normalized to spiked-in controls and pre-miRNAs were normalized to Snord72 and Snord95.
Stress and cytoplasmic stress granules (SGs) emerge as major pathogenic mechanisms of ALS [Kim et al. (2014) Nat Genet 46(2): 152-160]. Stress pathways are thought to control miRNA activity [Etude and Hornstein, EMBO J. (2014) July 1; 33(13):1428-37], but the idea that cellular stress might broadly regulate miRNA biogenesis was not yet tested. This hypothesis was tested herein by measurement of the relative expression levels of mature miRNAs and their precursors, pre-miRNAs, which provides a proxy for the efficacy of Dicer complex activity. […] Two other chemicals were tested that drive oxidative stress, namely Paraquat (PQ, 12 hrs, 1 mM) and sodium arsenite (1 hr, 0.5 mM). […] Therefore, several different cellular stress pathways negatively regulate miRNA biogenesis.

O=[As]O [sodium arsenite]
phosphorylation of eIF2a (eIF2a): sufficient to induce the phosphorylation of eIF2a | mature miRNAs (NSC-34 cells): down-regulation of mature miRNAs | pre-miRNA levels (NSC-34 cells): up-regulation of pre-miRNA levels
